Experimental data: patent US8314123B2, “5, 6, or 7-substituted -3-(hetero) arylisoquinolinamine derivatives and therapeutic use thereof” (Rexahn Pharmaceuticals, Inc., priority 2006, dated 2012)
Like-named read-outs stand apart in the source and are kept apart here.

Key:
[1] = test system: paclitaxel-resistant HCT-15 colorectal cancer cells; test: In vitro antitumor effects against paclitaxel-resistant HCT-15 cells; format: cell-based, Human; conditions: for IC50: Homo sapiens, paclitaxel-resistant HCT-15, Table 5, read-out: Inhibition of cell growth, IC50 (μM) HCT-15; for antitumor activity compared with paclitaxel: paclitaxel-resistant HCT-15 colorectal cancer cells
Description: (§1) Cancer cell lines to determine the effect of 5, 6, or 7-substituted-3-(hetero)arylisoquinolinamine compounds were obtained from the following sources: Human MDA-MB-231 (breast), PC3 (prostate), HCT-15 (colon), HCT116 (colon), OVCAR-3 (ovary), Caki-1 (kidney), PANC-1 (pancreas), SNB-19 (glioblastoma) and SK-MEL-28 (melanoma) from the American Type Culture Collection (ATCC) (Manassas, Va.). PC3, OVCAR-3, SK-MEL-28 and SNB-19 were grown in RPMI1640 medium (Invitrogen, Carlsbad, Calif.) supplemented with 10% fetal bovine serum (“FBS”), 1 mM sodium pyruvate, 10 mM HEPES and 100 U/ml penicillin and 100 μg/ml streptomycin (“P/S”). MDA-MB-231, Caki-1, HCT-15 (colon) and PANC-1 cells were maintained in Dulbecco's modified Eagle's medium (“DMEM”, Invitrogen) supplemented with 10% FBS, P/S and 10 mM HEPES. HCT116 cells were maintained in DMEM supplemented with 10% FBS, P/S and 10 mM HEPES for in vitro cell proliferation assay and in RPMI1640 medium supplemented with 10% FBS, 1 mM sodium pyruvate, 10 mM HEPES and P/S for in vitro cell cycle analysis. All cells were incubated at 37° C. under humidified 5% CO2.
(§2) The growth inhibition assay of representative 5, 6, or 7-substituted-3-(hetero)arylisoquinolinamine derivatives against human tumor cell lines was performed using the Sulforhodamine B (“SRB”) method (Skehan et al., J. National Cancer Institute, 82: 1107-1112 (1990)). Briefly, exponentially growing tumor cells were seeded into a 96-well plate at a density of 2-3×10^3 cells/well and treated with 5, 6, or 7-substituted-3-(hetero)arylisoquinolinamine compounds the next day. Triplicate wells were used for each treatment. The cells were incubated with the various compounds for 96 hours at 37° C. in a humidified 5% CO2 atmosphere. After 96-hour incubation, cells were fixed with 10% trichloroacetic acid (“TCA”), incubated for 1 hour at 4° C., and washed 3 times with tap water. Subsequently, cells were stained with 0.4% sulforhodamine B in 1% acetic acid for 30 minutes, washed 4 times with 1% acetic acid, and air-dried again. After 5 minutes agitation in 10 mM Tris solution, the absorbance of each well was measured at 530 nm using Benchmark Plus Microplate reader (Bio-Rad Laboratories, Hercules, Calif.).
(§3) To translate the OD530 values into the number of live cells in each well, the OD530 values were compared to those on standard OD530-versus-cell number curves generated for each cell line. The percent survival was calculated using the formula: % Survival=live cell number [test]/live cell number [control]×100
(§4) The IC50 values were calculated by non-linear regression analysis.
Compound 13 and 14 were tested in colon cancer cells and their antitumor activities were compared with paclitaxel (Taxol®).

HCT116 (colon) = test: In vitro cell proliferation assay (SRB), HCT116; format: cell-based; conditions: Homo sapiens, HCT-116
Description: as §1
(§5) The growth inhibition of the 5, 6, or 7-substituted-3-(hetero)arylisoquinolinamine derivatives against a variety of human tumor cells was evaluated to study the relative importance of particular substituent groups on the compounds. The 5, 6, or 7-substituted-3-(hetero)arylisoquinolinamine derivatives, prepared as described above, were tested with DMSO as a control.
as §2, §3, §4

[2] = test system: HCT15 human colon carcinoma xenografts; test: Ex vivo xenograft study of nude mice; format: in vivo; conditions: 10 mg/kg/day intraperitoneal, three times per week; for % Inhibition of HCT-15 human colorectal cancer in mice at 29 days: day 10 to day 29, nude mice
Description: In order to observe the inhibition of growth of tumor in an animal model, an ex vivo xenograft study of nude mice was conducted utilizing Compound 13. Paclitaxel-resistant HCT15 cell suspension (1×10^6 cells in 0.2 ml of RPMI) was injected subcutaneously into the right flank of six-week-old female athymic mice (BALB/c nu/nu) on day 0. A sufficient number of mice were injected with HCT15 cell suspension so that tumors in a volume range as narrow as possible were selected for the trial on the day of treatment initiation. Animals with tumors in the proper size range were assigned to various treatment groups. Palcitaxel was used as a positive control. Compound 13 and paclitaxel were dissolved in 5 Cremophor and 5% ethanol in PBS and solvent alone served as vehicle control. All study medications (vehicle control, paclitaxel: 10 mg/kg/day, Compound 13: 10 mg/kg/day) were given by intraperitoneal injections three times per week starting from day 10 and ending on day 29 after inoculation of HCT15 cells. To quantify tumor growth, three perpendicular diameters of the tumors were measured with calipers every 3-5 days, and the body weight of the mice was monitored for toxicity. The tumor volume was calculated using the formula: tumor volume (mm^3)=(width)×(length)×(height)×π/6.

SNB-19 (glioblastoma) = test: In vitro cell proliferation assay (SRB), SNB19; format: cell-based; conditions: Homo sapiens, SRB method, 96 hours, read-out: Inhibition of cell growth (IC50, μM) SNB19
Description: as §1, §5, §2, §3, §4

PC3 (prostate) = test: In vitro cell proliferation assay (SRB), PC3; format: cell-based; conditions: Homo sapiens; SRB method, 96 hours; read-out: Inhibition of cell growth (IC50, μM) PC3
Description: as §1, §5, §2, §3, §4

human cancer cell lines = test: Growth inhibition against the panel of human tumor cell lines (SRB), overall statements; format: cell-based; conditions: Table 3 cell lines
Description: as §1, §5, §2, §3, §4
Using QSAR and medicinal chemistry techniques, a large number of compounds, including the compounds shown in Table 1-2 above, were synthesized. The synthesized compounds were screened against at least four cancer cell lines, PANC-1, MDA-MB-231, HCT116 and Caki-1, at approximately 1 μM concentration. Compounds showing activity in at least one of these cell lines were selected for further screening. From these compounds, thirty compounds were selected for further evaluation as broad-spectrum anti-proliferative agents as shown in the following Table 3.

Caki-1 (kidney) = test: In vitro cell proliferation assay (SRB), Caki-1; format: cell-based; conditions: Homo sapiens, SRB method, 96 hours, read-out: Inhibition of cell growth (IC50, μM) Caki-1
Description: as §1, §5, §2, §3, §4

PANC-1 (pancreas) = test: In vitro cell proliferation assay (SRB), PANC-1; format: cell-based; conditions: Homo sapiens, SRB method, 96 hours, read-out: Inhibition of cell growth (IC50, μM) PANC-1
Description: as §1, §5, §2, §3, §4

SK-MEL-28 (melanoma) = test: In vitro cell proliferation assay (SRB), SK-MEL-28; format: cell-based; conditions: Homo sapiens, SRB method, 96 hours, read-out: Inhibition of cell growth (IC50, μM) SK-MEL-28
Description: as §1, §5, §2, §3, §4

MDA-MB-231 (breast) = test: In vitro cell proliferation assay (SRB), MDA-MB-231; format: cell-based; conditions: Homo sapiens, SRB method, 96 hours, read-out: Inhibition of cell growth (IC50, μM) MDA-MB-231
Description: as §1, §5, §2, §3, §4

OVCAR-3 (ovary) = test: In vitro cell proliferation assay (SRB), OVCAR3; format: cell-based; conditions: Homo sapiens, SRB method, 96 hours, read-out: Inhibition of cell growth (IC50, μM) OVCAR3
Description: as §1, §5, §2, §3, §4

HCT116 cells = test: In vitro cell cycle analysis (PI staining); format: cell-based, Human; conditions: HCT116, 0.3 uM, 12 hours
Description: as §1
This assay was used to determine the ability of 5, 6, or 7-substituted-3-(hetero)arylisoquinolinamine compounds to arrest cells at a specific phase during cell cycle. The day before drug treatment, HCT116 cells were plated at 50-70% saturation in a 10 cm dish in RPMI1640 medium with 10% FBS and then incubated overnight in a humidified 37° C. incubator with 5% CO2. The following day RPMI1640 medium (with 10% FBS) carrying the appropriate concentration of test compound solubilized in DMSO was added to the dishes. No compound control treatment was also included (0.25% DMSO). The cells were then incubated for 12 hours and were harvested by centrifugation at 7,000 rpm for 5 minutes. Cell pellets were resuspended in 0.2 ml of PBS containing 0.1% glucose and 2% FBS. Subsequently, 5 ml ice-cold 70% ethanol was added dropwise with shaking and the treated cells were stored at −20° C. at least 30 minutes. Cells were centrifuged at 2,000 rpm for 5 minutes and washed once with 1 ml PBS with 0.1% glucose and 2% FBS. After removal of the supernatant, cells were resuspended in 0.5 ml of 70 μM propium iodide (PI) solution containing 0.1% Triton X-100, 40 mM sodium citrate, pH 7.4. RNase was added at 50 μg/ml final concentration and cells were incubated at 37° C. for 30 minutes. PI stained cells were analyzed by Guava PCA-AFP instrument using its cell cycle software program (Guava Technologies, Hayward, Calif.) and expressed as percentage of cells in G1, S and G2/M phases of the cell cycle.

[3] = Table 5, read-out: Inhibition of cell growth, IC50 (μM) HCT116
[4] = SRB method, 96 hours, Table 3, read-out: Inhibition of cell growth (IC50, μM) HCT116

SMILES | IC50 [1] | IC50 (HCT116 (colon); [3]) | % Inhibition of HCT-15 human colorectal cancer in mice at 29 days [2] | IC50 (SNB-19 (glioblastoma)) | IC50 (PC3 (prostate)) | activity in growth inhibition of human cancer cell compared to Compound 23 (human cancer cell lines) | times more active than compound 23 in tested cell lines (human cancer cell lines) | antitumor activity compared with paclitaxel [1] | IC50 (Caki-1 (kidney)) | IC50 (HCT116 (colon); [4]) | IC50 (PANC-1 (pancreas)) | IC50 (SK-MEL-28 (melanoma)) | IC50 (MDA-MB-231 (breast)) | IC50 (OVCAR-3 (ovary)) | further results
CC(=O)O[C@H]1C(=O)[C@@]2(C)[C@H]([C@H](OC(=O)c3ccccc3)[C@]3(O)C[C@H](OC(=O)[C@H](O)[C@@H](NC(=O)c4ccccc4)c4ccccc4)C(C)=C1C3(C)C)[C@]1(OC(C)=O)CO[C@@H]1C[C@@H]2O [Paclitaxel, paclitaxel, reference compound] | 0.14 µM | 0.002 µM | 48.8% |  |  |  |  |  |  |  |  |  |  |  | loss of activity in HCT-15 cells when IC50 values compared in both colon cancer cells ([1]; HCT-15 versus HCT116): 70 fold
COc1cccc(-c2cc3ccc(N(C)C)cc3c(N)n2)c1.Cl [Compound 13, 3-(3-methoxyphenyl)-N^7,N^7-dimethylisoquinoline-1,7-diamine hydrochloride] | 0.015 µM | 0.017 µM | 69.2% | 0.032 µM | 0.019 µM | equal or better activity | five to thirteen times more active | higher antitumor activities than that of paclitaxel | 0.022 µM | 0.017 µM | 0.019 µM | 0.032 µM | 0.021 µM | 0.014 µM | Tolerability of treatment ([2]; nude mice): well tolerated without deaths; body weight fluctuations ([2]; nude mice): no more than 1 g
Cc1ccc2c(N)nc(-c3ccccc3C)cc2c1.Cl [Compound 23, 6-Methyl-3-o-tolylisoquinolin-1-amine hydrochloride salt] |  |  |  | 0.26 µM | 0.24 µM |  |  |  | 0.12 µM | 0.19 µM | 0.24 µM | 0.35 µM | 0.15 µM | 0.15 µM | melting point: 269.1 to 270.2 °C
Cc1cccc(-c2cc3ccc(N(C)C)cc3c(N)n2)c1.Cl [Compound 14, N^7,N^7-Dimethyl-3-m-tolylisoquinoline-1,7-diamine hydrochloride] | 0.021 µM | 0.023 µM |  | 0.028 µM | 0.024 µM | equal or better activity | five to thirteen times more active | higher antitumor activities than that of paclitaxel | 0.023 µM | 0.023 µM | 0.018 µM | 0.032 µM | 0.021 µM | 0.016 µM | % Cells in S (HCT116 cells; DMSO control 20.5): 7.6%; % Cells in G1 (HCT116 cells; DMSO control 39.4): 10.3%; % Cells in G2/M (HCT116 cells; DMSO control 40.1): 82.1%
